# pEC50: −log10 of the molar value. Read-outs that look alike come from different tables or passages of the source.
# Legend:
# [1] = target: T1, human mGluR4 (Homo sapiens, UniProt Q14833); test: human mGluR4 potentiation, Ca2+-sensitive dye fluorescence assay in transfected CHO cells; format: cell-based; settings: for Emax: CHO, maximum extent of potentiation, human mGluR4, read-out: hGluMax; for pEC50: EC50 for potentiation, human mGluR4, with EC20 concentration of agonist, read-out: hEC50
# T1 construct: expressed in transfected cells; host or cells: CHO cells
# Experimental: (§1) The disclosed compounds and compositions can be evaluated for their ability to act as a potentiator of metabotropic glutamate receptor activity, in particular mGluR4 activity, by any suitable known methodology known in the art. For example, Chinese Hamster Ovary (CHO) cells transfected with human mGluR4 or HEK cells co-transfected with rat mGluR4 and the G-protein regulated Inwardly Rectifying Potassium channel (GIRK) were plated in clear bottom assay plates for assay in a Hamamatsu FDSS Fluorometric Plate Reader. The cells were loaded with either a Ca2+-sensitive fluorescent dye or the thallium responsive dye and the plates were washed and placed into a suitable kinetic plate reader. […] Approximately two and a half minutes later, a concentration of mGluR4 orthosteric agonist (e.g. glutamate or L-AP4) eliciting approximately 20% (EC20) of the maximal agonist response was added to the cells, and the response was measured. Two minutes later, a concentration of mGluR4 agonist (e.g. glutamate or L-AP4) eliciting 80% (EC80) of the maximal agonist response was added to the cells, and the response was measured. For rat mGluR4/GIRK experiments, a baseline was established for approximately five seconds, disclosed compounds were added, and either an EC20 or EC80 concentration of agonist was added approximately two and one half minutes later.
# (§2) The above described assay operated in two modes. In the first mode, a range of concentrations of the disclosed compounds are added to cells, followed by a single fixed concentration of agonist. If the compound acts as a potentiatior, an EC50 value for potentiation and a maximum extent of potentiation by the compound at this concentration of agonist is determined by non-linear curve fitting. If the compound acts as a noncompetitive antagonist, an IC50 value is determined by non-linear curve fitting. In the second mode, several fixed concentrations of the disclosed compounds are added to various wells on a plate, followed by a range in concentrations of agonist for each concentration of disclosed compound. The ECso values for the agonist at each concentration of compound are determined by non-linear curve fitting. A decrease in the EC50 value of the agonist with increasing concentrations of the sample compound (a leftward shift of the agonist concentration-response curve) is an indication of the degree of mGluR4 potentiation at a given concentration of the sample compound. A decrease in the maximal response of the agonist with increasing concentrations of the sample compounds, with or without a rightward shift in agonist potency, is an indication of the degree of noncompetitive antagonism at mGluR4. The second mode also indicates whether the sample compounds also affect the maximum response to mGluR4 to agonists.
# [2] = target: T2, rat mGluR4 (Rattus norvegicus, UniProt P31423); test: rat mGluR4/GIRK potentiation, thallium responsive dye assay in co-transfected HEK cells; format: cell-based; settings: for rGluMax: maximum extent of potentiation
# T2 construct: expressed in transfected cells; host or cells: HEK cells
# Experimental: as §1, §2
# T2 sequence (P31423 33-912): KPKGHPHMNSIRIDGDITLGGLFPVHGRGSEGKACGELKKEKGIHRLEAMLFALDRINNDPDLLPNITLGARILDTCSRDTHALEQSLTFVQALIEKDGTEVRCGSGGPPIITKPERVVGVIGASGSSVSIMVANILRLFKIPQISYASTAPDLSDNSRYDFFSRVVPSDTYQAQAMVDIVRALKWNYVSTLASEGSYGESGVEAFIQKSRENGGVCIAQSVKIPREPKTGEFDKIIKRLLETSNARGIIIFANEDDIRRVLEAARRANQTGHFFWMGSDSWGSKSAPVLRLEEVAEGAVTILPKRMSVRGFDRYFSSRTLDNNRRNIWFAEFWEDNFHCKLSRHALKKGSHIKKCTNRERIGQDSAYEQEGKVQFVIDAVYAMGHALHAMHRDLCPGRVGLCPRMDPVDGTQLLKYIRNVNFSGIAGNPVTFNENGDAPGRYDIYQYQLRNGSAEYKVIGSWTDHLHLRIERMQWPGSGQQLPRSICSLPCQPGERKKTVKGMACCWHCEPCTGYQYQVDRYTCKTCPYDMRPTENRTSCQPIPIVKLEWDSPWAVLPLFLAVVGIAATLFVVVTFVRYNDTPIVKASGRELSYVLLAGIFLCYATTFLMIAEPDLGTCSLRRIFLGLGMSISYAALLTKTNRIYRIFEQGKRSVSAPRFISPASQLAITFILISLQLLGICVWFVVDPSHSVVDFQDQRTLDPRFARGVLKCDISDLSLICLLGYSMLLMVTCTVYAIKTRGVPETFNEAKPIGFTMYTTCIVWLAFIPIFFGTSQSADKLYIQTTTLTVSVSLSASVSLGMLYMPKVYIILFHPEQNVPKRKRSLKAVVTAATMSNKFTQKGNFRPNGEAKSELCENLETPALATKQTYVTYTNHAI
# T1 sequence (Q14833 33-912): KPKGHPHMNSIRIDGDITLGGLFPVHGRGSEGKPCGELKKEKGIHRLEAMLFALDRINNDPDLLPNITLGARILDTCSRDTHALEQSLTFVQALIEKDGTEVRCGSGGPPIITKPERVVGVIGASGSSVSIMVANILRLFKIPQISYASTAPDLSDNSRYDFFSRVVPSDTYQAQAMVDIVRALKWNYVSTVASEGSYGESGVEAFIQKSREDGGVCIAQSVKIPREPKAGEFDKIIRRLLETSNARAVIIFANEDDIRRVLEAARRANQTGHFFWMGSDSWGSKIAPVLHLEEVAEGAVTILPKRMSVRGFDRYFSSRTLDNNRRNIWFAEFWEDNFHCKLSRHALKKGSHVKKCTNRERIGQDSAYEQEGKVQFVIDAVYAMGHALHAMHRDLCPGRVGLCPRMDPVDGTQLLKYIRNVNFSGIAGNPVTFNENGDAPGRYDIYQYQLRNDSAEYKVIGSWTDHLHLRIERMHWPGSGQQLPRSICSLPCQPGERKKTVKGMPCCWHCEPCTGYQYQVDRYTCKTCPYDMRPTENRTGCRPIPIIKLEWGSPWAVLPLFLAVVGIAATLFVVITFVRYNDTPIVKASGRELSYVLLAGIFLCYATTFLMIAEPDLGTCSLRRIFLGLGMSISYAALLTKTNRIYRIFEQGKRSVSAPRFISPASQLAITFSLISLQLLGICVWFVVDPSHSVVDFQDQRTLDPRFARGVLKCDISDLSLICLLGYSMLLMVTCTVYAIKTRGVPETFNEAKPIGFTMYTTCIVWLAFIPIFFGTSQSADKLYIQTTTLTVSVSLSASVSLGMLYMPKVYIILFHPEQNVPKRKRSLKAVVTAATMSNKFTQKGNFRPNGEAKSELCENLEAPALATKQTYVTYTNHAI
Structure (SMILES),Emax [1],rGluMax ([2]; rat mGluR4/GIRK),pEC50 [1],"pEC50 ([2]; EC50 for potentiation, rat mGluR4/GIRK, with EC20 concentration of agonist, read-out: rEC50)",pEC50 [2]
O=C(Nc1ccc(N2C(=O)[C@@H]3[C@H](C2=O)[C@@H]2C=C[C@H]3CC2)c(Cl)c1)c1ccccn1 [Example 1],222%,–,–,–,–
"O=C(Nc1ccc(N2C(=O)CC(c3ccccc3)C2=O)c(Cl)c1)c1ccccn1 (centres unmarked) [Example 3, N-(3-chloro-4-(2,5-dioxo-3-phenylpyrrolidin-1-yl)phenyl)picolinamide]",219%,128.7,–,–,6.16
"CC1CCC2C(=O)N(c3ccc(NC(=O)c4ccccn4)cc3Cl)C(=O)C2C1 (centres unmarked) [Example 10, N-(3-chloro-4-(5-methyl-1,3-dioxo-1H-isoindol-2(3H,3 aH,4H,5H,6H,7H,7aH)-yl)phenyl)picolinamide]",215%,–,6.24,–,–
"O=C(Nc1ccc(N2C(=O)CC3(CCCCC3)CC2=O)c(Cl)c1)c1ccccn1 [Example 14, N-(3-chloro-4-(2,4-dioxo-3-azaspiro[5.5]undecan-3-yl)phenyl)picolinamide]",193%,–,6.79,–,–
"O=C(Nc1ccc(N2C(=O)CC3(CCCCC3)C2=O)c(Cl)c1)c1ccccn1 [Example 15, N-(3-chloro-4-(1,3-dioxo-2-azaspiro[4.5]decan-2-yl)phenyl)picolinamide]",139%,86.1,–,–,–
"O=C(Nc1ccc(N2C(=O)CCC2=O)c(Cl)c1)c1cccc(F)n1 [Example 17, N-(3-chloro-4-(2,5-dioxopyrrolidin-1-yl)phenyl)-6-fluoropicolinamide]",40%,–,5.50,–,–
"O=C(Nc1ccc(N2C(=O)CCC2=O)c(Cl)c1)c1cccc(Cl)n1 [Example 18, 6-Chloro-N-(3-chloro-4-(2,5-dioxopyrrolidin-1-yl)phenyl)picolinamide]",37%,–,5.59,–,–
"O=C(Nc1ccc(N2C(=O)CCC2=O)c(Cl)c1)c1ccncn1 [Example 19, N-(3-chloro-4-(2,5-dioxopyrrolidin-1-yl)phenyl) pyrimidine-4-carboxamide]",46%,–,5.00,–,–
"O=C(Nc1ccc(N2C(=O)CCC2=O)c(Cl)c1)c1nccs1 [Example 20, N-(3-chloro-4-(2,5-dioxopyrrolidin-1-yl)phenyl)thiazole-2-carboxamide]",69%,–,5.11,–,–
"O=C(Nc1ccc(N2C(=O)CCC2=O)c(Cl)c1)c1cscn1 [Example 21, N-(3-chloro-4-(2,5-dioxopyrrolidin-1-yl)phenyl)thiazole-4-carboxamide]",62%,–,5.06,–,–

# Continued, in another order:
Emax [1],rGluMax ([2]; rat mGluR4/GIRK),pEC50 [1],"pEC50 ([2]; EC50 for potentiation, rat mGluR4/GIRK, with EC20 concentration of agonist, read-out: rEC50)",Structure (SMILES),pEC50 [2]
211%,110.2,–,–,O=C(Nc1ccc(N2C(=O)C3[C@H]4C=C[C@H](C4)[C@H]3C2=O)c(Cl)c1)c1ccccn1 (some centres unmarked) [Example 2],–
88%,–,6.48,–,"O=C(Nc1ccc(N2C(=O)CC(Cc3ccccc3Cl)(c3ccccc3)C2=O)c(Cl)c1)c1ccccn1 (centres unmarked) [Example 4, N-(3-chloro-4-(3-(2-chlorobenzyl)-2,5-dioxo-3-phenylpyrrolidin-1-yl)phenyl)picolinamide]",–
155%,–,5.74,–,"CC1(C)CC(=O)N(c2ccc(NC(=O)c3ccccn3)cc2Cl)C1=O [Example 5, N-(3-chloro-4-(3,3-dimethyl-2,5-dioxopyrrolidin-1-yl)phenyl)picolinamide]",–
245%,–,–,–,"CC1(c2ccccc2)CC(=O)N(c2ccc(NC(=O)c3ccccn3)cc2Cl)C1=O (centres unmarked) [Example 6, N-(3-chloro-4-(3-methyl-2,5-dioxo-3-phenylpyrrolidin-1-yl)phenyl)picolinamide]",–
209%,–,5.71,–,O=C(Nc1ccc(N2C(=O)[C@H]3CC[C@H](c4ccccc4)C[C@H]3C2=O)c(Cl)c1)c1ccccn1 [Example 7],–
189%,123.3,–,6.17,"O=C(Nc1ccc(N2C(=O)[C@@H]3CCCC[C@H]3C2=O)c(Cl)c1)c1ccccn1 [Example 8, N-(3-chloro-4-((3aR,7aR)-1,3-dioxo-1H-isoindol-2(3H,3aH,4H,5H,6H,7H,7aH)-yl)phenyl)picolinamide]",–
116%,–,–,–,"O=C(Nc1ccc(N2C(=O)[C@H]3CCCC[C@H]3C2=O)c(Cl)c1)c1ccccn1 [Example 9, N-(3-chloro-4-((3aR,7aS)-1,3-dioxo-1H-isoindol-2(3H,3aH,4H,5H,6H,7H,7aH)-yl)phenyl)picolinamide]",–
64%,–,5.94,–,"O=C(Nc1ccc(N2C(=O)[C@H](c3ccccc3)[C@H](c3ccccc3)C2=O)c(Cl)c1)c1ccccn1 [Example 11, N-(3-chloro-4-((3R,4S)-2,5-dioxo-3,4-diphenylpyrrolidin-1-yl)phenyl)picolinamide]",–
276%,–,6.60,–,"O=C(Nc1ccc(N2C(=O)C3=C(C2=O)c2ccccc2CC3)c(Cl)c1)c1ccccn1 [Example 12, N-(3-chloro-4-(1,3-dioxo-4,5-dihydro-1H-benzo[e]isoindol-2(3H)-yl)phenyl)picolinamide]",–
256%,–,6.93,–,"O=C(Nc1ccc(N2C(=O)Cc3ccccc3C2=O)c(Cl)c1)c1ccccn1 [Example 13, N-(3-chloro-4-(1,3-dioxo-3,4-dihydroisoquinolin-2(1H)-yl)phenyl)picolinamide]",–
119%,–,5.23,–,"O=C(Nc1ccc(N2C(=O)CCC2=O)c(Cl)c1)c1ccccn1 [Example 16, N-(3-chloro-4-(2,5-dioxopyrrolidin-1-yl)phenyl)picolinamide]",–
